Assay results: US20020055702A1, “ULTRASOUND-MEDIATED DRUG DELIVERY” (priority 1998, published 2002)
Entries after “also recorded” stand apart in the source; their conditions may differ.

System: corpus cavernosum
Assay: Intracorporal (cavernosal) pressure in anesthetized male dogs after topical papaverine gel with or without ultrasound
Assay type: in vivo, dog
Description: The invention has reduced to practice and the principles of the invention have been proven by animal experiments. In these experiments, male dogs, one year old, were anesthetized and a midline abdominal incision was made from the xyphoid process down to the symphisis pubis. Proceeding slightly lateral to the left side of the penis, the corpus cavernosum was exposed. Two butterfly needles were placed into one of the corpus cavernosum, one proximally and one distally. The proximal needle was used for intracorporal pressure recordings, while saline was infused through the distal needle. Controlled intracorporal blood pressure (without applying any drugs) was monitored and recorded while saline was perfused at a rate of 1.7 ml/min. Nude mice skin was used to cover the exposed corpora by stitching it to the dog's incised skin. A gel containing 500 mg papaverine (in a base of polyethylene glycol, methyl paraben, butyl paraben, and butylated hydroxytoluene) was applied on the surface of the nude mice skin followed by the application of an ultrasound probe of 1 MHz, pulse mode 30%, at a power level of 2 w/cm^2, for 20 min. In the control experiments, papaverine was applied topically without any ultrasound application and the manometric pressure was monitored. The resulting manometric pressure was compared to the control pressure by measuring the time needed to reach the peak pressure and the time needed for the cavernosal pressure to decline to baseline.
Perfusion of the corpora with saline (with no ultrasound or papaverine application) was performed for 15 sec at a rate of 1.7 ml/min. creating a pressure ranging from 150-220 cm. H2O. The time needed for this pressure to drop to baseline (0-5) was 30 sec. Perfusion of the corpora with saline after applying ultrasound and papaverine reached the same pressure peak in only 5 sec. Moreover, the pressure declined to baseline in 1.5 minutes.

[1] = papaverine gel plus ultrasound versus baseline (saline only)

COc1ccc(Cc2nccc3cc(OC)c(OC)cc23)cc1OC [papaverine]
time needed to reach the peak pressure (gel with 500 mg papaverine on nude mice skin over corpora, ultrasound 1 MHz, pulse mode 30%, 2 w/cm^2, 20 min, saline perfusion 1.7 ml/min): 5 s
time needed for the cavernosal pressure to decline to baseline (gel with 500 mg papaverine plus ultrasound 1 MHz, pulse mode 30%, 2 w/cm^2, 20 min, saline perfusion 1.7 ml/min): 1.5 min
manometric pressure result compared to saline-only control (papaverine gel on the skin for 20 min, no ultrasound): same results as in the control experiments; also recorded: no greater pressure readings than the no-drug control
manometric pressure result with ultrasound (papaverine gel plus ultrasound treatment): rise in pressure which was consistent with erection
improvement in the period of time established as a baseline for the establishment of erection [1]: 300%
persistence of effects relative to the baseline erection parameters [1]: 500%
